Test results: ChEMBL document CHEMBL1201862, “PubChem BioAssay data set” (2004)
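Values below derive from 48-hour exposures of cells grown in 96-well plates, with endpoints linearly interpolated between the two concentrations bracketing the appropriate inhibition level. At the GI50, growth is halved.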 Calls of active or inactive are those of the source. No stated cut-off is given here; in the data, active = GI50 up to about 1.1 µM and inactive = higher.

Assays:
Assay in all cases: NCI-60 cell line screen, 48 h
DU-145 = system: DU-145
786-0 = system: 786-0
OVCAR-8 = system: OVCAR-8
CCRF-CEM = system: CCRF-CEM
OVCAR-4 = system: OVCAR-4
MDA-MB-435 = system: MDA-MB-435
HOP-62 = system: HOP-62
UACC-62 = system: UACC-62
HOP-92 = system: HOP-92
HT-29 = system: HT-29
NCI-H23 = system: NCI-H23
OVCAR-3 = system: OVCAR-3
SK-MEL-5 = system: SK-MEL-5
UACC-257 = system: UACC-257
IGROV-1 = system: IGROV-1
SF-268 = system: SF-268
SK-MEL-28 = system: SK-MEL-28
U-251 = system: U-251
CAKI-1 = system: CAKI-1
SF-295 = system: SF-295

Row | SMILES | GI50 (DU-145) | GI50 (786-0) | GI50 (OVCAR-8) | GI50 (CCRF-CEM) | GI50 (OVCAR-4) | GI50 (MDA-MB-435) | GI50 (HOP-62) | GI50 (UACC-62) | GI50 (HOP-92) | GI50 (HT-29) | GI50 (NCI-H23) | GI50 (OVCAR-3) | GI50 (SK-MEL-5) | GI50 (UACC-257) | GI50 (IGROV-1) | GI50 (SF-268) | GI50 (SK-MEL-28) | GI50 (U-251) | GI50 (CAKI-1) | GI50 (SF-295)
1 | CN(C)c1ccc(/C=c2\c3ccccc3n3c2cc(-c2ccccc2)[n+]3C)cc1 | 0.222 µM (active) | 0.142 µM (active) | 0.0726 µM (active) | 0.0635 µM (active) | 0.809 µM (active) | 0.0916 µM (active) | 0.303 µM (active) | 0.365 µM (active) | 0.284 µM (active) | 0.0891 µM (active) | 0.0582 µM (active) | 0.0752 µM (active) | 0.0728 µM (active) | 0.243 µM (active) | 0.0689 µM (active) | 0.261 µM (active) | 0.365 µM (active) | 0.0322 µM (active) | 0.716 µM (active) | 0.213 µM (active)
2 | COc1c2c(c(OC)c3c1c(=O)c1ccccc1n3C)OCO2 | 36.5 µM (inactive) | 29.2 µM (inactive) | 27.1 µM (inactive) | 4.35 µM (inactive) | 24.6 µM (inactive) | 2.28 µM (inactive) | 25.2 µM (inactive) | 9.06 µM (inactive) | > 47.8 µM (inactive) | 17.5 µM (inactive) | 10.6 µM (inactive) | 5.51 µM (inactive) | 3.14 µM (inactive) | > 100 µM (inactive) | 7.87 µM (inactive) | 18.5 µM (inactive) | 30.5 µM (inactive) | 19.1 µM (inactive) | 37.4 µM (inactive) | 14.1 µM (inactive)
3 | CN1CCN(c2n[nH]c(=O)c3c2nnn3C2CCCCC2)CC1 | > 100 µM (inactive) | > 100 µM (inactive) | > 100 µM (inactive) | > 100 µM (inactive) | > 100 µM (inactive) | > 100 µM (inactive) | > 100 µM (inactive) | > 100 µM (inactive) | > 100 µM (inactive) | > 100 µM (inactive) | > 100 µM (inactive) | > 100 µM (inactive) | > 100 µM (inactive) | > 100 µM (inactive) | > 100 µM (inactive) | > 100 µM (inactive) | > 100 µM (inactive) | > 100 µM (inactive) | > 100 µM (inactive) | > 100 µM (inactive)
4 | c1ccc(/C(=N/Nc2ccccn2)c2cccnn2)cc1 | 2.62 µM (inactive) | 1.38 µM (inactive) | 1.87 µM (inactive) | 0.767 µM (active) | > 84.5 µM (inactive) | 4.73 µM (inactive) | 2.85 µM (inactive) | 3.44 µM (inactive) | 5.48 µM (inactive) | 1.16 µM (inactive) | 2.91 µM (inactive) | 1.92 µM (inactive) | 2.35 µM (inactive) | 3.94 µM (inactive) | 1.79 µM (inactive) | 0.853 µM (active) | > 34.2 µM (inactive) | 4.21 µM (inactive) | 1.75 µM (inactive) | 3.11 µM (inactive)
5 | O=C(N/N=C\c1cccc2ccccc12)Nc1ccc([N+](=O)[O-])cc1 | 15.3 µM (inactive) | 3.54 µM (inactive) | 7.64 µM (inactive) | 24.3 µM (inactive) | 8.04 µM (inactive) | 18.9 µM (inactive) | 17.9 µM (inactive) | 18.1 µM (inactive) | 6.67 µM (inactive) | 16.8 µM (inactive) | 8.89 µM (inactive) | 7.74 µM (inactive) | 22.6 µM (inactive) | 25.1 µM (inactive) | 18.4 µM (inactive) | 19.5 µM (inactive) | 27.7 µM (inactive) | 17.1 µM (inactive) | 42.1 µM (inactive) | 13.7 µM (inactive)
6 | O=C1N/C(=N/N=C/c2cccs2)N/C1=C\c1ccco1 | > 100 µM (inactive) | 51.6 µM (inactive) | 37 µM (inactive) | 12 µM (inactive) | > 100 µM (inactive) | 20.6 µM (inactive) | > 100 µM (inactive) | 60.7 µM (inactive) | > 100 µM (inactive) | 39.6 µM (inactive) | 45.3 µM (inactive) | 22.5 µM (inactive) | 24.3 µM (inactive) | 55.7 µM (inactive) | 26.1 µM (inactive) | 19.8 µM (inactive) | 76.9 µM (inactive) | 23.5 µM (inactive) | > 100 µM (inactive) | 94.2 µM (inactive)
7 | c1ccc2cc3c(NC4=NCCO4)cccc3cc2c1 | 78.7 µM (inactive) | 57 µM (inactive) | 48.5 µM (inactive) | 27.7 µM (inactive) | 35.6 µM (inactive) | 37.1 µM (inactive) | > 100 µM (inactive) | > 100 µM (inactive) | 17.6 µM (inactive) | 29.9 µM (inactive) | 32.9 µM (inactive) | 32.2 µM (inactive) | 35 µM (inactive) | 48.5 µM (inactive) | 60.8 µM (inactive) | 34.2 µM (inactive) | > 100 µM (inactive) | > 100 µM (inactive) | 52.5 µM (inactive) | > 100 µM (inactive)
8 | COc1cc2oc3c(c(=O)c2c(O)c1/C=C/C(C)C)CCC(C)(C)Oc1cc(O)ccc1-3 | 33.8 µM (inactive) | 14.9 µM (inactive) | 15.5 µM (inactive) | 17.3 µM (inactive) | 14.3 µM (inactive) | 16.1 µM (inactive) | 15.4 µM (inactive) | 15.6 µM (inactive) | 17.6 µM (inactive) | 7.13 µM (inactive) | 16 µM (inactive) | 15.6 µM (inactive) | 18.7 µM (inactive) | 14.3 µM (inactive) | 17.7 µM (inactive) | 15.6 µM (inactive) | 14.8 µM (inactive) | 20.5 µM (inactive) | 16.5 µM (inactive) | 13.3 µM (inactive)
9 | C=C(C)[C@@H]1CC=C(CO)CC1 [PERILLYL ALCOHOL] | > 10 µM (inactive) | 195 µM (inactive) | 145 µM (inactive) | 101 µM (inactive) | 515 µM (inactive) | > 10 µM (inactive) | 184 µM (inactive) | 236 µM (inactive) | 117 µM (inactive) | 136 µM (inactive) | 465 µM (inactive) | 150 µM (inactive) | 110 µM (inactive) | 533 µM (inactive) | 574 µM (inactive) | 84.1 µM (inactive) | 201 µM (inactive) | 125 µM (inactive) | > 10 µM (inactive) | 266 µM (inactive)
